Measurements from ChEMBL document CHEMBL1139426, “Design and synthesis of a metabolically stable and potent antitussive agent, a novel delta opioid receptor antagonist, TRK-851” (Bioorg Med Chem, 2008).
Active and inactive are the calls of the source. The rule behind the calls is not given here.

Assays:
[1] = Metabolic stability in human liver microsomes assessed as time course of compound elimination at 1 uM by HPLC; type: ADME, Microsome; conditions: read-out: Ke (converted)
[2] = test system: Rattus norvegicus; assay: Antitussive activity in sc dosed Sprague-Dawley rat assessed as reduction of capsaicin-induced coughing for 3 mins administered 30 mins before capsaicin challenge relative to control; type: functional
[3] = molecular target: Mu-type opioid receptor (Mus musculus) (UniProt P42866); assay: Antagonist activity at mu opioid receptor in ddy mouse vas deferens assessed as inhibition of morphine-induced electrically-stimulated contraction at 10 nM pretreated for 20 mins; type: functional, tissue-based
[4] = molecular target: Kappa-type opioid receptor (Mus musculus) (UniProt P33534); assay: Antagonist activity at kappa opioid receptor in ddy mouse vas deferens assessed as ratio of U-50,488H concentration that elicit equal response in absence and presence of compound; type: functional
[5] = molecular target: Kappa-type opioid receptor (Mus musculus) (UniProt P33534); assay: Antagonist activity at kappa opioid receptor in ddy mouse vas deferens assessed as inhibition of U-50,488H-induced electrically-stimulated contraction at 10 nM pretreated for 20 mins; type: functional, tissue-based
[6] = molecular target: Delta-type opioid receptor (Mus musculus) (UniProt P32300); assay: Antagonist activity at delta opioid receptor in ddy mouse vas deferens assessed as ratio of DPDPE concentration that elicit equal response in absence and presence of compound; type: functional
[7] = test system: Rattus norvegicus; assay: Antitussive activity in po dosed Sprague-Dawley rat assessed as inhibition of capsaicin-induced coughing for 3 mins administered 60 mins before capsaicin challenge relative to control; type: functional, organism-based
[8] = molecular target: Mu-type opioid receptor (Mus musculus) (UniProt P42866); assay: Antagonist activity at mu opioid receptor in ddy mouse vas deferens assessed as ratio of morphine concentration that elicit equal response in absence and presence of compound; type: functional
[9] = molecular target: Kappa-type opioid receptor (Mus musculus, UniProt P33534); assay: Antagonist activity at kappa opioid receptor in ddy mouse vas deferens assessed as inhibition of U-50,488H-induced electrically-stimulated contraction; type: functional, tissue-based; conditions: read-out: pA2 (converted)
[10] = species on record: Mus musculus; assay: Selectivity for delta opioid receptor over mu opioid receptor in ddy mouse vas deferens; type: tissue-based
[11] = molecular target: Delta-type opioid receptor (Mus musculus, UniProt P32300); assay: Antagonist activity at delta opioid receptor in ddy mouse vas deferens assessed as inhibition of DPDPE-induced electrically-stimulated contraction; type: functional, tissue-based
[12] = molecular target: Delta-type opioid receptor (Mus musculus) (UniProt P32300); assay: Antagonist activity at delta opioid receptor in ddy mouse vas deferens assessed as inhibition of DPDPE-induced electrically-stimulated contraction at 10 nM pretreated for 20 mins; type: functional, tissue-based
[13] = species on record: Mus musculus; assay: Selectivity for delta opioid receptor over kappa opioid receptor in ddy mouse vas deferens; type: tissue-based
[14] = test system: Rattus norvegicus; assay: Antitussive activity in po dosed rat assessed as reduction of coughing; type: functional
[15] = test system: Rattus norvegicus; assay: Antitussive activity in ip dosed Sprague-Dawley rat assessed as reduction of capsaicin-induced coughing for 3 mins administered 30 mins before capsaicin challenge relative to control; type: functional

Sequence of Mu-type opioid receptor (Mus musculus) (P42866 whole entry): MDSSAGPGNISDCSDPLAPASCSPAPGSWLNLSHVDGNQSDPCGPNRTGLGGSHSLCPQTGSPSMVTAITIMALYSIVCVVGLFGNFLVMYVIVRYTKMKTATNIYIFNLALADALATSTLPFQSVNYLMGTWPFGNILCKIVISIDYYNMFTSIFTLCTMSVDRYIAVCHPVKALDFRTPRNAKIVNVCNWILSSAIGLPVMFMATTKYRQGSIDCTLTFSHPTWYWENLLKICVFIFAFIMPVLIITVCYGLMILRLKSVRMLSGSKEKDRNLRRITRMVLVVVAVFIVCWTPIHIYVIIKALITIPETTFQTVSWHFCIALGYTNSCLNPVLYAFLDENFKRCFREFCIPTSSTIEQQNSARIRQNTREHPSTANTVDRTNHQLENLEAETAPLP
Sequence of Delta-type opioid receptor (P32300 whole entry): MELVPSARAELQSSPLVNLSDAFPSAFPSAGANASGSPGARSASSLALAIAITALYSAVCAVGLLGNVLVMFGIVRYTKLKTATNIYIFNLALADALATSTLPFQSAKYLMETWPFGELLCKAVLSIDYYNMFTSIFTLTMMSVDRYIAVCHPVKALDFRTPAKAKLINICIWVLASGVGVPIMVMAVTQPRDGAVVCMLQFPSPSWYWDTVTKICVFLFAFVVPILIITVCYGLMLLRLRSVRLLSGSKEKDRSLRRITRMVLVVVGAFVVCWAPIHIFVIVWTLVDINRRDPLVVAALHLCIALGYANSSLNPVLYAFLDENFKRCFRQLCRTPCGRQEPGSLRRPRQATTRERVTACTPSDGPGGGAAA
Sequence of Delta-type opioid receptor (Mus musculus) (P32300 whole entry): as above
Sequence of Kappa-type opioid receptor (Mus musculus) (P33534 whole entry): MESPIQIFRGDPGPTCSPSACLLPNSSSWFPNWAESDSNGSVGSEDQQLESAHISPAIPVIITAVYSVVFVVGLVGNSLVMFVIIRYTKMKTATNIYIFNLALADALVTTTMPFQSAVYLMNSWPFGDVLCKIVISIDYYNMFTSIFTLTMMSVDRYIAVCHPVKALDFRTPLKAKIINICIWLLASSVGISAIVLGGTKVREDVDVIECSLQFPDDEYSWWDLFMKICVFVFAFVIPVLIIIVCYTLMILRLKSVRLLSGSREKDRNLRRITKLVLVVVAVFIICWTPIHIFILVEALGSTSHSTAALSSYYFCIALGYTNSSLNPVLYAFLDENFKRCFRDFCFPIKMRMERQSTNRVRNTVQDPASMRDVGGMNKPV
Sequence of Kappa-type opioid receptor (P33534 whole entry): as above

**Q.** With COc1ccc2c3c1O[C@H]1c4c(c5cc(Br)cc6c5n4CCC6)C[C@@]4(O)[C@@H](C2)N(CC2CC2)CC[C@]314 as the molecule, how does the k el at 1 µM [1] read?
**A.** 0.0044 s⁻¹

**Q.** Which k el at 1 µM [1] does the source give for CC1(C)CCn2c3c(c4cccc1c42)C[C@@]1(O)[C@H]2Cc4ccc(O)c5c4[C@@]1(CCN2CC1CC1)[C@H]3O5 here?
**A.** 0.00126 s⁻¹

**Q.** What does the source list for Oc1ccc2c3c1O[C@H]1c4c(c5c(C(F)(F)F)ccc6c5n4CCC6)C[C@@]4(O)[C@@H](C2)N(CC2CC2)CC[C@]314?
**A.** k el at 1 µM [1]: 0.000278 s⁻¹; ED50 [2]: 0.355 µg/kg

**Q.** With Oc1ccc2c3c1O[C@H]1c4c(c5cc(F)cc6c5n4CCC6)C[C@@]4(O)[C@@H](C2)N(CC2CC2)CC[C@]314 as the molecule, how does the Activity [3] read?
**A.** inactive

**Q.** And the Ratio [4]?
**A.** 1.03

**Q.** What about the Activity [5] of the same molecule?
**A.** inactive

**Q.** And the Ratio [6]?
**A.** 7.87

**Q.** What about the Activity [7] of the same molecule?
**A.** Dose-dependent effect

**Q.** And the Ratio [8]?
**A.** 0.98

**Q.** What about the Kb [9] of the same molecule?
**A.** 0.331 µM

**Q.** What about the k el at 1 µM [1] of the same molecule?
**A.** 0.00029 s⁻¹

**Q.** What about the Selectivity ratio [10] of the same molecule?
**A.** > 100

**Q.** What about the IC50 [11] of the same molecule?
**A.** 8.8 µM

**Q.** And the Kb ([11]; read-out: pA2 (converted))?
**A.** 0.00145 µM

**Q.** What about the Activity [12] of the same molecule?
**A.** inactive

**Q.** What about the Selectivity ratio [13] of the same molecule?
**A.** > 100

**Q.** What about the ED50 [2] of the same molecule?
**A.** 1.7 µg/kg

**Q.** For Oc1ccc2c3c1O[C@H]1c4c(c5cc(OC(F)(F)F)cc6c5n4CCC6)C[C@@]4(O)[C@@H](C2)N(CC2CC2)CC[C@]314, which k el at 1 µM [1] is on record?
**A.** 0.000152 s⁻¹

**Q.** And the ED50 [2]?
**A.** > 1000 µg/kg

**Q.** For Cc1ccc2c3c1c1c(n3CCC2)[C@@H]2Oc3c(O)ccc4c3[C@@]23CCN(CC2CC2)[C@H](C4)[C@]3(O)C1, which k el at 1 µM [1] is on record?
**A.** 0.000565 s⁻¹

**Q.** Which k el at 1 µM [1] does the source give for Oc1ccc2c3c1O[C@H]1c4c(c5ccc(Br)c6c5n4CCC6)C[C@@]4(O)[C@@H](C2)N(CC2CC2)CC[C@]314 here?
**A.** 0.000363 s⁻¹

**Q.** What about the ED50 [2] of the same molecule?
**A.** 27.4 µg/kg

**Q.** With Oc1ccc2c3c1O[C@H]1c4c(c5cc(Br)cc6c5n4CCC6)C[C@@]4(O)[C@@H](C2)N(CC2CC2)CC[C@]314 as the molecule, how does the k el at 1 µM [1] read?
**A.** 0.000252 s⁻¹

**Q.** What about the ED50 [2] of the same molecule?
**A.** 5.05 µg/kg

**Q.** For Oc1ccc2c3c1O[C@H]1c4c(c5cccc6c5n4CCC6)C[C@@]4(O)[C@@H](C2)N(CC2CC2)CC[C@]314, which k el at 1 µM [1] is on record?
**A.** 0.000415 s⁻¹

**Q.** What about the ED50 [2] of the same molecule?
**A.** 0.2 µg/kg

**Q.** For COc1ccc2c3c(n4c2c1CCC4)[C@@H]1Oc2c(O)ccc4c2[C@@]12CCN(CC1CC1)[C@H](C4)[C@]2(O)C3, which k el at 1 µM [1] is on record?
**A.** 0.000437 s⁻¹

**Q.** And the ED50 [2]?
**A.** 54.2 µg/kg

**Q.** With Oc1ccc2c3c1O[C@H]1c4c(c5ccc(Cl)c6c5n4CCC6)C[C@@]4(O)[C@@H](C2)N(CC2CC2)CC[C@]314 as the molecule, how does the k el at 1 µM [1] read?
**A.** 0.000483 s⁻¹

**Q.** What about the ED50 [2] of the same molecule?
**A.** 13.8 µg/kg

**Q.** What does the source list for Oc1ccc2c3c1O[C@H]1c4c(c5cc(C(F)(F)F)cc6c5n4CCC6)C[C@@]4(O)[C@@H](C2)N(CC2CC2)CC[C@]314?
**A.** k el at 1 µM [1]: 0.00027 s⁻¹; ED50 [2]: > 1000 µg/kg

**Q.** With COc1ccc2c3c1O[C@H]1c4c(c5cccc6c5n4CCC6)C[C@@]4(O)[C@@H](C2)N(CC2CC2)CC[C@]314.CS(=O)(=O)O as the molecule, how does the ED50 [14] read?
**A.** 6.4 µg/kg

**Q.** What about the k el at 1 µM [1] of the same molecule?
**A.** 0.00568 s⁻¹

**Q.** What about the ED50 [15] of the same molecule?
**A.** 2.07 µg/kg

**Q.** Which results are given for COc1cc2c3c(c1)c1c(n3CCC2)[C@@H]2Oc3c(O)ccc4c3[C@@]23CCN(CC2CC2)[C@H](C4)[C@]3(O)C1?
**A.** k el at 1 µM [1]: 0.000552 s⁻¹; ED50 [2]: 2 µg/kg

**Q.** What does the source list for Oc1ccc2c3c1O[C@H]1c4c(c5c(Cl)ccc6c5n4CCC6)C[C@@]4(O)[C@@H](C2)N(CC2CC2)CC[C@]314?
**A.** k el at 1 µM [1]: 0.00045 s⁻¹; ED50 [2]: 3.5 µg/kg

**Q.** Which k el at 1 µM [1] does the source give for Oc1ccc2c3c1O[C@H]1c4c(c5c(Br)ccc6c5n4CCC6)C[C@@]4(O)[C@@H](C2)N(CC2CC2)CC[C@]314 here?
**A.** 0.000618 s⁻¹

**Q.** What about the ED50 [2] of the same molecule?
**A.** 94.6 µg/kg

**Q.** Which k el at 1 µM [1] does the source give for COc1ccc2c3c1O[C@H]1c4c(c5c(C(F)(F)F)ccc6c5n4CCC6)C[C@@]4(O)[C@@H](C2)N(CC2CC2)CC[C@]314 here?
**A.** 0.00228 s⁻¹

**Q.** For Oc1ccc2c3c1O[C@H]1c4c(c5cc(Cl)cc6c5n4CCC6)C[C@@]4(O)[C@@H](C2)N(CC2CC2)CC[C@]314, which k el at 1 µM [1] is on record?
**A.** 0.000295 s⁻¹

**Q.** What about the ED50 [15] of the same molecule?
**A.** 78.4 µg/kg

**Q.** Which k el at 1 µM [1] does the source give for COc1ccc2c3c1O[C@H]1c4c(c5cc(F)cc6c5n4CCC6)C[C@@]4(O)C(C2)N(CC2CC2)CC[C@]314 here?
**A.** 0.00647 s⁻¹

**Q.** What about the ED50 [15] of the same molecule?
**A.** 4.73 µg/kg

**Q.** For COc1ccc2c3c1c1c(n3CCC2)[C@@H]2Oc3c(O)ccc4c3[C@@]23CCN(CC2CC2)[C@H](C4)[C@]3(O)C1, which k el at 1 µM [1] is on record?
**A.** 0.000475 s⁻¹

**Q.** And the ED50 [2]?
**A.** 8.67 µg/kg

**Q.** What does the source list for COc1ccc2c3c1O[C@H]1c4c(c5cccc6c5n4CCC6(C)C)C[C@@]4(O)[C@@H](C2)N(CC2CC2)CC[C@]314?
**A.** k el at 1 µM [1]: 0.00103 s⁻¹; ED50 [2]: 12.8 µg/kg

**Q.** With COc1ccc2c3c1O[C@H]1c4c(c5cccc6c5n4CCO6)C[C@@]4(O)[C@@H](C2)N(CC2CC2)CC[C@]314 as the molecule, how does the k el at 1 µM [1] read?
**A.** 0.00105 s⁻¹

**Q.** For COc1ccc2c3c1O[C@H]1c4c(c5c(C)ccc6c5n4CCC6)C[C@@]4(O)[C@@H](C2)N(CC2CC2)CC[C@]314, which k el at 1 µM [1] is on record?
**A.** 0.00595 s⁻¹

**Q.** Which results are given for Oc1ccc2c3c1O[C@H]1c4c(c5cccc6c5n4CCO6)C[C@@]4(O)[C@@H](C2)N(CC2CC2)CC[C@]314?
**A.** k el at 1 µM [1]: 0.000557 s⁻¹; ED50 [2]: 14 µg/kg

**Q.** For COc1ccc2c3c1O[C@H]1c4c(c5c(OC)ccc6c5n4CCC6)C[C@@]4(O)[C@@H](C2)N(CC2CC2)CC[C@]314, which k el at 1 µM [1] is on record?
**A.** 0.00333 s⁻¹

**Q.** With Oc1ccc2c3c1O[C@H]1c4[nH]c5ccccc5c4C[C@@]4(O)[C@@H](C2)N(CC2CC2)CC[C@]314 [NALTRINDOLE] as the molecule, how does the ED50 [15] read?
**A.** 104 µg/kg
